Measured values taken from PubChem BioAssay (NCI).
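Values below derive from 48-hour exposures of cells grown in 96-well plates, with endpoints linearly interpolated between the two concentrations bracketing the appropriate inhibition level. GI50 = concentration required for 50% inhibition of growth. TGI is the concentration that stops growth completely.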

Key:
Assay in all cases: NCI-60 cell line screen, 48 h
[1] = system: EKVX NSCLC
[2] = system: BT-549 breast
[3] = system: NCI/ADR-RES ovarian
[4] = system: NCI-H226 lung
[5] = system: NCI-H460 lung
[6] = system: SF-268 CNS
[7] = system: ACHN renal
[8] = system: NCI-H23 lung
[9] = system: SK-OV-3 ovarian
[10] = system: SN12C renal
[11] = system: SNB-75 CNS
[12] = system: DU-145 prostate
[13] = system: HCC-2998 colon
[14] = system: SK-MEL-28 melanoma
[15] = system: MALME-3M melanoma
[16] = system: MCF7 breast
[17] = system: T-47D breast
[18] = system: KM12 colon
[19] = system: MDA-N
[20] = system: HOP-62 NSCLC
[21] = system: M14 melanoma
[22] = system: MOLT-4 leukemia
[23] = system: COLO 205 colon
[24] = system: HCT-116 colon
[25] = system: OVCAR-3 ovarian
[26] = system: HCT-15 colon
[27] = system: CCRF-CEM leukemia
[28] = system: SK-MEL-2 melanoma
[29] = system: OVCAR-4 ovarian
[30] = system: IGROV1 ovarian
[31] = system: K-562 leukemia
[32] = system: TK-10 renal
[33] = system: U251 CNS
[34] = system: NCI-H522 lung
[35] = system: SF-539 CNS
[36] = system: A549 NSCLC
[37] = system: LOX IMVI melanoma
[38] = system: 786-0 renal
[39] = system: UACC-257 melanoma
[40] = system: OVCAR-8 ovarian
[41] = system: MDA-MB-231 breast
[42] = system: MDA-MB-435
[43] = system: OVCAR-5 ovarian
[44] = system: CAKI-1 renal
[45] = system: RPMI-8226 leukemia
[46] = system: RXF 393 renal
[47] = system: SF-295 CNS
[48] = system: SW-620 colon
[49] = system: PC-3 prostate
[50] = system: UACC-62 melanoma
[51] = system: SNB-19 CNS
[52] = system: A498 renal
[53] = system: HT29 colon
[54] = system: HS 578T breast
[55] = system: HL-60(TB) leukemia
[56] = system: SK-MEL-5 melanoma
[57] = system: UO-31 renal
[58] = system: HOP-92 NSCLC

In the case of O=C(N/N=C(/COc1ccccc1)N=Cc1cccnc1)c1ccncc1, the TGI [1] is reported as > 100 µM, the TGI [2] is reported as > 100 µM and the TGI [3] is reported as > 100 µM. For the same molecule, the TGI [4] was > 100 µM, the TGI [5] was > 100 µM and the TGI [6] was > 100 µM. The TGI [7] was > 100 µM, the TGI [8] was > 100 µM and the TGI [9] was > 100 µM. For the same molecule, the TGI [10] was > 100 µM, the TGI [11] was > 100 µM and the TGI [12] was > 100 µM. The TGI [13] was > 100 µM, the TGI [14] was > 100 µM and the TGI [15] was > 100 µM. For the same molecule, the TGI [16] was > 100 µM, the TGI [17] was > 100 µM and the TGI [18] was > 100 µM. For the same molecule, the TGI [19] was > 100 µM, the TGI [20] was > 100 µM and the TGI [21] was > 100 µM. The TGI [22] was > 100 µM, the TGI [23] was > 100 µM and the TGI [24] was > 100 µM. For the same molecule, the TGI [25] was > 100 µM, the TGI [26] was > 100 µM and the TGI [27] was > 100 µM. The TGI [28] was > 100 µM, the TGI [29] was > 100 µM and the TGI [30] was > 100 µM. For the same molecule, the TGI [31] was > 100 µM, the TGI [32] was > 100 µM and the TGI [33] was > 100 µM. The TGI [34] was > 100 µM, the TGI [35] was > 100 µM and the TGI [36] was > 100 µM. For the same molecule, the TGI [37] was > 100 µM, the TGI [38] was > 100 µM and the TGI [39] was > 100 µM. For the same molecule, the TGI [40] was > 100 µM, the TGI [41] was > 100 µM and the TGI [42] was > 100 µM. The TGI [43] was > 100 µM, the TGI [44] was > 100 µM and the TGI [45] was > 100 µM. For the same molecule, the TGI [46] was > 100 µM, the TGI [47] was > 100 µM and the TGI [48] was > 100 µM. For the same molecule, the TGI [49] was > 100 µM, the TGI [50] was > 100 µM and the TGI [51] was > 100 µM. For the same molecule, the TGI [52] was > 100 µM, the TGI [53] was > 100 µM and the TGI [54] was > 100 µM. The TGI [55] was > 100 µM.

Work on Cn1c(N)nc(-c2ccc(Cl)cc2)c1SSc1c(-c2ccc(Cl)cc2)nc(N)n1C yielded a TGI [1] of 6.47 µM, a TGI [2] of 5.19 µM and a TGI [4] of 83.5 µM. The TGI [5] was 15.3 µM, the TGI [6] was 7.1 µM and the TGI [7] was 5.14 µM. It also gave a TGI [8] of 3.37 µM, a TGI [56] of 3.2 µM and a TGI [9] of 27.4 µM. It also gave a TGI [11] of 20.8 µM, a TGI [12] of 25.4 µM and a TGI [13] of 20.7 µM. For the same molecule, the TGI [14] was 3.76 µM, the TGI [15] was 4.57 µM and the TGI [17] was 5.06 µM. It also gave a TGI [18] of 3.46 µM, a TGI [19] of 3.34 µM and a TGI [20] of 7.69 µM. For the same molecule, the TGI [21] was 3.78 µM, the TGI [22] was > 100 µM and the TGI [23] was 3.81 µM. It also gave a TGI [24] of 13.4 µM, a TGI [25] of 3.54 µM and a TGI [26] of 3.44 µM. It also gave a TGI [27] of 5.05 µM, a TGI [28] of 32.1 µM and a TGI [29] of 3.21 µM. The TGI [30] was 9.21 µM, the TGI [31] was 6.2 µM and the TGI [32] was 3.32 µM. It also gave a TGI [33] of 4.19 µM, a TGI [34] of 3.62 µM and a TGI [35] of 3.33 µM. It also gave a TGI [36] of 27.2 µM, a TGI [57] of 3.24 µM and a TGI [38] of 3.43 µM. The TGI [39] was 3.52 µM, the TGI [40] was 5.81 µM and the TGI [41] was 2.88 µM. For the same molecule, the TGI [42] was 3.54 µM, the TGI [43] was 3.26 µM and the TGI [45] was 3.3 µM. The TGI [46] was 5.47 µM, the TGI [47] was 21.4 µM and the TGI [58] was 3.7 µM. The TGI [48] was 4.03 µM, the TGI [49] was 3.38 µM and the TGI [50] was 5.03 µM. It also gave a TGI [51] of 27.8 µM, a TGI [52] of 27.8 µM and a TGI [53] of 4.74 µM. The TGI [54] was > 100 µM and the TGI [55] was 2.92 µM.

COc1cccc(-c2cc3c4c(nc5ccccc53)C(=O)c3cccnc3-c4n2)c1 showed a GI50 [1] of 3.98 µM, a TGI [1] of 14.2 µM and a GI50 [2] of 10.6 µM. For the same molecule, the TGI [2] was 28.1 µM, the GI50 [3] was 2.22 µM and the TGI [3] was 7.92 µM. The GI50 [4] was 6.27 µM, the TGI [4] was 22.3 µM and the GI50 [5] was 1.07 µM. For the same molecule, the GI50 [6] was 3.27 µM, the TGI [6] was 14.9 µM and the GI50 [7] was 2.21 µM. The TGI [7] was 9.82 µM, the GI50 [8] was 1.47 µM and the TGI [8] was 4.28 µM. For the same molecule, the GI50 [56] was 0.578 µM, the TGI [56] was 1.76 µM and the GI50 [9] was 8.57 µM. The TGI [9] was 25.7 µM, the GI50 [10] was 2.44 µM and the TGI [10] was 6.54 µM. It also gave a GI50 [11] of 2.32 µM, a TGI [11] of 5.71 µM and a GI50 [12] of 1.67 µM. The TGI [12] was 3.13 µM, the GI50 [13] was 2.2 µM and the TGI [13] was 4.61 µM. It also gave a GI50 [14] of 10.2 µM, a TGI [14] of 22.3 µM and a GI50 [15] of 0.822 µM. The TGI [15] was 3.32 µM, the GI50 [16] was 0.418 µM and the TGI [16] was > 100 µM. It also gave a GI50 [17] of 2.26 µM, a TGI [17] of 5.99 µM and a GI50 [18] of 1.54 µM. The TGI [18] was 3.75 µM, the GI50 [19] was 1.74 µM and the TGI [19] was 4.01 µM. It also gave a GI50 [20] of 4.2 µM, a TGI [20] of 12.3 µM and a GI50 [21] of 0.863 µM. For the same molecule, the TGI [21] was 2.36 µM, the GI50 [22] was 0.788 µM and the TGI [22] was > 100 µM. It also gave a GI50 [23] of 5.56 µM, a TGI [23] of 10.9 µM and a GI50 [24] of 1.3 µM. The TGI [24] was 5.75 µM, the GI50 [25] was 0.3 µM and the GI50 [26] was 1.52 µM. It also gave a TGI [26] of 4.44 µM, a GI50 [28] of 1.18 µM and a TGI [28] of 4.16 µM. For the same molecule, the GI50 [29] was 1.94 µM, the TGI [29] was 8.5 µM and the GI50 [30] was 3.37 µM. For the same molecule, the TGI [30] was 14.4 µM, the GI50 [31] was 1.82 µM and the TGI [31] was > 100 µM. The GI50 [32] was 5.03 µM, the TGI [32] was > 64.8 µM and the GI50 [33] was 1.66 µM. It also gave a TGI [33] of 7.13 µM, a GI50 [34] of 0.429 µM and a TGI [34] of 2.01 µM. The GI50 [35] was 3.28 µM, the TGI [35] was 10.3 µM and the GI50 [36] was 1.44 µM. The TGI [36] was 3.82 µM, the GI50 [57] was 2.02 µM and the TGI [57] was 8.45 µM. For the same molecule, the GI50 [37] was 2.31 µM, the TGI [37] was > 100 µM and the GI50 [38] was 2.03 µM. For the same molecule, the TGI [38] was 4.48 µM, the GI50 [39] was 1.06 µM and the TGI [39] was 4.33 µM. It also gave a GI50 [40] of 1.69 µM, a TGI [40] of 7.08 µM and a GI50 [41] of 4.61 µM. For the same molecule, the TGI [41] was > 37.8 µM, the GI50 [42] was 1.18 µM and the TGI [42] was 2.57 µM. The GI50 [43] was 3.05 µM, the TGI [43] was 8.92 µM and the GI50 [44] was 3.36 µM. The TGI [44] was 11.5 µM, the GI50 [45] was 1.2 µM and the TGI [45] was 4.22 µM. It also gave a GI50 [46] of 2.47 µM, a TGI [46] of 9.91 µM and a GI50 [47] of 2.34 µM. For the same molecule, the TGI [47] was 6.44 µM, the GI50 [58] was 4.3 µM and the TGI [58] was 19.8 µM. The GI50 [48] was 1.32 µM, the TGI [48] was 3.88 µM and the GI50 [49] was 2.73 µM. The TGI [49] was 12.8 µM, the GI50 [50] was 3.88 µM and the TGI [50] was 10.5 µM. The GI50 [51] was 4.2 µM, the TGI [51] was 11.2 µM and the GI50 [52] was 14.1 µM. The TGI [52] was 29.5 µM, the GI50 [53] was 2.49 µM and the TGI [53] was 6.19 µM. The GI50 [54] was 3.18 µM and the TGI [54] was 11.2 µM.
